Test results published in US20250368552A1, “INHIBITION OF BIOFILMS GROWTH IN PROCESS WATERS WITH MICROBIAL INTERACTIVE COMPOSITIONS” (ECOLAB USA INC., priority 2024, published 2025).

What was measured:
[1] = system: Cooling Water Bacteria Population 1; assay: Biofilm inhibition test, 96 well microtiter plate, crystal violet stain (similar to ASTM E2799-12 MBEC assay); type: cell-based
Text: The bacterial species used for the biofilm inhibition testing included: 1) cooling water bacterial population 1=total aerobic bacterial population that was obtained from cooling water samples in cooling water systems and grown on standard nutrient agar for aerobic bacteria, and 2) cooling water bacterial population 2=Pseudomonas species in cooling water systems. Pseudomonas species were collected from cooling water samples from selective media. The collected Pseudomonas population from cooling water systems were stored at −80° C. and re-inoculated into 100 mL fresh test medium (described below), incubated at a rotary shaker at 35° C., […] for 18-24 hours before used as a starter culture. […]
(§1) To quantify the biofilm and effect of the chemicals, the minimal biofilm eradication concentration (MBEC) using a method similar to the ASTM method for Testing disinfectant efficacy against Pseudomonas aeruginosa Biofilm using MBEC Assay (E2799-12), Standard Test Method for Testing Disinfectant Efficacy against Pseudomonas aeruginosa Biofilm using MBEC Assay. […]
The control where there was no chemical treatment present indicated a steady presence of biofilm build up between absorbance 0.5 to 0.6. The biofilm concentrations are correlated to the absorbance at wavelength 580-595 nm (depicted in figures as Obs 580 nm). […]

[2] = system: Cooling Water Bacteria Population 2; assay: as above; type: cell-based, Pseudomonas species in cooling water systems
Text: The bacterial species used for the biofilm inhibition testing included: 1) cooling water bacterial population 1=total aerobic bacterial population that was obtained from cooling water samples in cooling water systems and grown on standard nutrient agar for aerobic bacteria, and 2) cooling water bacterial population 2=Pseudomonas species in cooling water systems. Pseudomonas species were collected from cooling water samples from selective media. The collected Pseudomonas population from cooling water systems were stored at −80° C. and re-inoculated into 100 mL fresh test medium (described below), incubated at a rotary shaker at 35° C., […] for 18-24 hours before used as a starter culture.
The concentration range for the testing of these microorganisms for the waters was 10^4-10^8 CFU/ml.
The following Examples utilized a 96-well microtiter plate and aerobic incubation.
The Biofilm inhibition testing utilized a test medium with a final concentration of 16% test medium in the water. […]
as §1

biofilm = assay: Biofilm quantity on surface by crystal violet staining, biofilm reduction vs control; type: cell-based; conditions: for Avg Biofilm Reduction: (Treatment OD595 - Control OD595)*100/Control OD595, negative = less biofilm
Text: (§2) Additional testing was run to show various evaluated concentrations of chemistries including No Treatment (Control), QAT Biocide, Chemical B, and Chemical A+E for assessing biofilm reduction based on average planktonic bacterial concentrations as shown in Table 5.
The following methodology for the biofilm concentration on surface were used:
Biofilm quantity: biofilm quantity grew on surface can be determined by crystal violate staining, followed by 3 times of washing and then eluting.
Biofilm Reduction from chemical treatment is calculated by the following: (average Treatment OD595-average Control OD595)*100/average Control OD595 where the CV absorbance range used was 580-595 nm. If OD595 was <0.1, it was considered as non-biofilm formation. CV absorbance range 580-595 nm was used in different tests.

[3] = system: Bact P2 (Cooling Water Bacteria Population 2), planktonic growth; assay: Planktonic inhibition (minimum inhibition concentration in liquid culture); type: cell-based; conditions: minimum inhibitory concentration
Text: (§3) Another plate was run according to the same procedures outlined in Examples 1-3. The experiment tested Chemicals including Alkyl Poly Glucoside, QAT Biocide, Chemical B, Chemical A+D for Planktonic inhibition as well as Biofilm Inhibition as reflected in Table 4.
(§4) The results in Table 4 show minimum biofilm inhibition concentrations (ppm) when treating different bacterial populations with each of the chemicals alone.
(§5) Minimum Inhibition Concentration (MIC): at this concentration, bacterial population stopped growth under the above incubation conditions
(§6) OD600 turbidity: bacterial concentration is correlated with the medium turbidity, The planktonic concentration can be calculated using a turbidity to bacterial count concentration model. If OD600 is <0.1, it is considered bacterial counts <10^3 cfu/ml.

[4] = system: Bact P1 (Cooling Water Bacteria Population 1), planktonic growth; assay: as above; type: cell-based
Text: as §3, §4, §5, §6

planktonic bacteria = assay: Average planktonic bacterial concentration in liquid culture (plate count / OD600 turbidity); type: cell-based; conditions: control 8.7
Text: as §2
The following methodology for the bacterial concentration in liquid culture were used:
Plate count: plate the treated bacterial mixture after serial dilutions with required mediums like R2A, Petrifilms etc.
as §6

[5] = system: indigenous microbial populations of cooling water sources; assay: MIC of hypochlorite (as free chlorine) for biofilm formation in commercial cooling water sources; type: cell-based; conditions: for MIC hypochlorite: hypochlorite alone, as free chlorine
Description: Additional testing was completed to show the benefit of reducing a biocidal dose with the method of preventing biofilms described herein. Various commercial cooling water sources were evaluated for the MIC of hypochlorite (Minimum Inhibition Concentration as free chlorine for biofilm formation) as the biocide dosed with the Chemistry A+Chemistry E. The test conditions and results are shown in Table 6.
Under certain conditions the biocide dosing requirement was reduced by over 90%.

[6] = concentration giving biofilm reduction
[7] = minimum biofilm inhibition concentration

In the case of `CCCCCCCCCC[N+](C)(C)CCCCCCCCCC.[Cl-]` [QATS Biocide, Didecyl Dimethyl Ammonium Chloride], the “Biofilm Reduction Bact P1” value [1, 6] is reported as 0.8 ppm, the “Total Biofilm Inhibition Bact P1” value [1, 7] is reported as 6 ppm and the “Biofilm reduction Bact P2” value [2, 6] is reported as 0.8 ppm. The “Total Biofilm Inhibition Bact P2” value [2, 7] was 1.6 ppm, the “Avg Biofilm Reduction” value (biofilm; 1.6 ppm) was 49.9% and the “Avg Biofilm Reduction” value (biofilm; 3.1 ppm) was 54.0%. The “Avg Biofilm Reduction” value (biofilm; 6.2 ppm) was 108.4%, the “Avg Biofilm Reduction” value (biofilm; 12.5 ppm) was −3.5% and the “Avg Biofilm Reduction” value (biofilm; 25.0 ppm) was 34.7%. For the same molecule, the “Avg Biofilm Reduction” value (biofilm; 50.0 ppm) was −89.1%, the “Avg Biofilm Reduction” value (biofilm; 100.0 ppm) was −12.1% and the “Concentration showing both planktonic and biofilm control” value (biofilm; Table 5) was “greater than 50 ppm”. For the same molecule, the “Planktonic Inhibition Bact P2” value [3] was 1.6 ppm, the “Concentration that effectively killed planktonic bacteria” value ([4]; Table 4, Bact P1 and Bact P2) was at most 3 ppm and the “Planktonic Inhibition Bact P1” value ([4]; minimum inhibitory concentration, Bact P1) was 3 ppm. The “Avg Planktonic Bacterial Conc” value (planktonic bacteria; 1.6 ppm) was 8.672 Log cfu/ml, the “Avg Planktonic Bacterial Conc” value (planktonic bacteria; 3.1 ppm) was 8.688 Log cfu/ml and the “Avg Planktonic Bacterial Conc” value (planktonic bacteria; 6.2 ppm) was 8.609 Log cfu/ml. The “Avg Planktonic Bacterial Conc” value (planktonic bacteria; 12.5 ppm) was 8.492 Log cfu/ml, the “Avg Planktonic Bacterial Conc” value (planktonic bacteria; 25.0 ppm) was 8.590 Log cfu/ml and the “Avg Planktonic Bacterial Conc” value (planktonic bacteria; 50.0 ppm) was under 3.000 Log cfu/ml. For the same molecule, the “Avg Planktonic Bacterial Conc” value (planktonic bacteria; 100.0 ppm) was under 3.000 Log cfu/ml.
With `OCl` [hypochlorite] the MIC hypochlorite ([5]; Cooling Water Source 1) was 25 ppm, the “MIC hypochlorite (ppm) With 6 ppm Chemistry A + Chemistry E” value ([5]; Cooling Water Source 1) was 3.1 ppm and the MIC hypochlorite ([5]; Cooling Water Source 2) was 25 ppm. The “MIC hypochlorite (ppm) With 6 ppm Chemistry A + Chemistry E” value ([5]; Cooling Water Source 2) was 6.3 ppm, the MIC hypochlorite ([5]; Cooling Water Source 3) was 12.5 ppm and the “MIC hypochlorite (ppm) With 6 ppm Chemistry A + Chemistry E” value ([5]; Cooling Water Source 3) was 0.8 ppm. The MIC hypochlorite ([5]; Cooling Water Source 4) was 25 ppm and the “MIC hypochlorite (ppm) With 6 ppm Chemistry A + Chemistry E” value ([5]; Cooling Water Source 4) was 12.5 ppm.
